{"source": "patent US20020193424A1", "about": "“Human cancerous cell anti-proliferation and survival inhibition agent” (priority 2000, published 2002)", "key": {"[1]": {"system": "Human prostate carcinoma DU145 cells", "assay": "FBS-stimulated cell growth of DU145 cells (total cell number, Coulter Counter)", "format": "cell-based", "conditions": "10% FBS, 50, 100 and 200 micromolars, counted at 48 and 72 hours, compared with control and silymarin", "method": "(§1) 1. Cells and Culture Conditions. Human prostate carcinoma DU145 cells were obtained from American Type Culture Collection (Bethesda, Md.), and cultured in RPMI 1640 containing 10% fetal bovine serum (FBS) and 1% penicillin-streptomycin under standard culture conditions. Alternatively, DU145 cells were cultured in 10% charcoal/dextran stripped FBS (cFBS) and 1% penicillin-streptomycin in the presence or absence of 1 nM DHT.\n(§2) Silymarin and Silibinin derivatives were dissolved in ethanol for all the treatments. […] The dose and time of silibinin derivatives treatment are depicted in the associated drawings.\n(§3) 2. Results. Referring to FIGS. 3 through 6, for the studies assessing the effect of silibinin derivatives on FBS-stimulated cell growth and cell death, DU145 cells were plated at 1×10^5 cells per 60 mm plate in RPMI 1640 containing 10% FBS and treated with either ethanol alone or varying concentrations of silymarin (“Si”) and silibinin derivatives (“D1” and “D2”) (50, 100 and 200 micromolars). Cells were counted at 48 and 72 hours after treatment with the subject compounds.\n(§4) At the counting intervals, cells were trypsinized and collected in counting vials. Each plate was washed thoroughly with isotonic buffer containing 0.1% formalin and washings were collected in the original vials with trypsinized cells. Each vial was counted using Coulter Counter to determine the total cell number."}, "[2]": {"system": "Human prostate carcinoma DU145 cells", "assay": "Percent cell death of DU145 cells", "format": "cell-based", "conditions": "10% FBS, 50, 100 and 200 micromolars, 48 and 72 hours, compared with control and silymarin", "method": "as §1, §2, §3, §4"}, "[3]": {"conditions": "human, in vivo; cited from earlier work"}}, "data": [{"substance": "2,3-Dihydro-3-[3,4-dimethoxyphenyl]-2-[hydroxymethyl]-5,7-dimethoxy-4-oxobenzopyran-2-yl]benzodioxin [Derivative #1]", "values": [{"measurement": "inhibition of cell growth", "setting": "[1]", "value": "remarkably improved inhibition of cell growth over the control and silymarin"}, {"measurement": "percentage of cell death", "setting": "[2]", "value": "likewise improved percentage of cell death"}]}, {"substance": "Silymarin", "values": [{"measurement": "tolerability / adverse effects", "setting": "[3]", "value": "well tolerated and largely free of adverse effects"}]}]}
